Laboratory results as given in the NIST ThermoML archive (doi:10.1016/j.jct.2016.03.021).

Experiment: wn = mass fraction of the nth substance listed
Settings: Liquid; for mass density: Vibrating tube method

CN(CCO)CCO [N-methyldiethanolamine] + O
viscosity [mPa·s]
Settings | w1 = 0.1 | w1 = 0.2 | w1 = 0.2002 | w1 = 0.3 | w1 = 0.4
293.15 K, 93 kPa, Concentric cylinders viscometry | 1.463 | 2.293 | – | 3.942 | –
293.15 K, 100 kPa, Falling or rolling sphere viscometry | 1.476 | 2.35 | 2.35 | 3.999 | –
293.15 K, 5000 kPa, Falling or rolling sphere viscometry | 1.475 | – | 2.353 | 4.018 | –
293.15 K, 10000 kPa, Falling or rolling sphere viscometry | 1.475 | – | 2.357 | 4.038 | –
293.15 K, 20000 kPa, Falling or rolling sphere viscometry | 1.471 | – | 2.364 | 4.077 | –
293.15 K, 30000 kPa, Falling or rolling sphere viscometry | 1.472 | – | 2.372 | 4.114 | –
293.15 K, 40000 kPa, Falling or rolling sphere viscometry | 1.47 | – | 2.38 | 4.153 | –
293.15 K, 60000 kPa, Falling or rolling sphere viscometry | 1.474 | – | 2.399 | 4.231 | –
293.15 K, 80000 kPa, Falling or rolling sphere viscometry | 1.477 | – | 2.419 | 4.311 | –
293.15 K, 100000 kPa, Falling or rolling sphere viscometry | 1.485 | – | 2.437 | 4.39 | –
293.15 K, 120000 kPa, Falling or rolling sphere viscometry | 1.492 | – | 2.464 | 4.478 | –
313.15 K, 93 kPa, Concentric cylinders viscometry | 0.9079 | 1.342 | – | 2.094 | 3.145
313.15 K, 100 kPa, Falling or rolling sphere viscometry | 0.912 | 1.345 | 1.345 | 2.095 | 3.238
313.15 K, 5000 kPa, Falling or rolling sphere viscometry | 0.914 | – | 1.347 | 2.106 | 3.27
313.15 K, 10000 kPa, Falling or rolling sphere viscometry | 0.915 | – | 1.349 | 2.118 | 3.302
313.15 K, 20000 kPa, Falling or rolling sphere viscometry | 0.92 | – | 1.358 | 2.144 | 3.365
313.15 K, 30000 kPa, Falling or rolling sphere viscometry | 0.923 | – | 1.367 | 2.168 | 3.428
313.15 K, 40000 kPa, Falling or rolling sphere viscometry | 0.927 | – | 1.377 | 2.192 | 3.491
313.15 K, 60000 kPa, Falling or rolling sphere viscometry | 0.936 | – | 1.398 | 2.244 | 3.618
313.15 K, 80000 kPa, Falling or rolling sphere viscometry | 0.945 | – | 1.418 | 2.296 | 3.74
313.15 K, 100000 kPa, Falling or rolling sphere viscometry | 0.955 | – | 1.445 | 2.356 | 3.866
313.15 K, 120000 kPa, Falling or rolling sphere viscometry | 0.964 | – | 1.466 | 2.412 | 3.996
333.15 K, 93 kPa, Concentric cylinders viscometry | 0.6344 | 0.8719 | – | 1.276 | 1.82
333.15 K, 100 kPa, Falling or rolling sphere viscometry | 0.624 | 0.872 | 0.872 | 1.271 | 1.843
333.15 K, 5000 kPa, Falling or rolling sphere viscometry | 0.627 | – | 0.876 | 1.278 | 1.861
333.15 K, 10000 kPa, Falling or rolling sphere viscometry | 0.63 | – | 0.881 | 1.286 | 1.88
333.15 K, 20000 kPa, Falling or rolling sphere viscometry | 0.634 | – | 0.89 | 1.302 | 1.921
333.15 K, 30000 kPa, Falling or rolling sphere viscometry | 0.638 | – | 0.898 | 1.316 | 1.956
333.15 K, 40000 kPa, Falling or rolling sphere viscometry | 0.643 | – | 0.907 | 1.332 | 1.992
333.15 K, 60000 kPa, Falling or rolling sphere viscometry | 0.652 | – | 0.924 | 1.367 | 2.063

mass density [kg/m3]
Settings | w1 = 0.1 | w1 = 0.2002 | w1 = 0.3 | w1 = 0.4
293.15 K, 100 kPa | 1007 | 1016.5 | 1026.7 | 1036.6
293.15 K, 500 kPa | 1007.2 | 1016.6 | 1026.9 | 1036.8
293.15 K, 1000 kPa | 1007.4 | 1016.8 | 1027.1 | 1036.9
293.15 K, 2000 kPa | 1007.8 | 1017.2 | 1027.4 | 1037.3
293.15 K, 5000 kPa | 1009 | 1018.4 | 1028.6 | 1038.3
293.15 K, 10000 kPa | 1011.1 | 1020.3 | 1030.4 | 1040.1
293.15 K, 15000 kPa | 1013.2 | 1022.2 | 1032.2 | 1041.9
293.15 K, 20000 kPa | 1015.3 | 1024.2 | 1034.1 | 1043.6
293.15 K, 30000 kPa | 1019.4 | 1028 | 1037.7 | 1047.1
293.15 K, 40000 kPa | 1023.4 | 1031.8 | 1041.2 | 1050.4
293.15 K, 50000 kPa | 1027.3 | 1035.4 | 1044.6 | 1053.8
293.15 K, 60000 kPa | 1031.1 | 1039 | 1048 | 1057.1
293.15 K, 70000 kPa | 1035 | 1042.6 | 1051.4 | 1060.3
293.15 K, 80000 kPa | 1038.5 | 1045.9 | 1054.6 | 1063.3
293.15 K, 90000 kPa | 1042.2 | 1049.4 | 1057.9 | 1066.4
293.15 K, 100000 kPa | 1045.7 | 1052.8 | 1061.1 | 1069.5
293.15 K, 110000 kPa | 1049.2 | 1056 | 1064.1 | 1072.4
293.15 K, 120000 kPa | 1052.7 | 1059.3 | 1067.2 | 1075.4
293.15 K, 130000 kPa | 1056.1 | 1062.6 | 1070.3 | 1078.4
293.15 K, 140000 kPa | 1059.5 | 1065.6 | 1073.2 | 1081.1
313.15 K, 100 kPa | 1000.2 | 1008.5 | 1017.2 | 1025.5
313.15 K, 500 kPa | 1000.4 | 1008.6 | 1017.4 | 1025.6
313.15 K, 1000 kPa | 1000.6 | 1008.8 | 1017.5 | 1025.8
313.15 K, 2000 kPa | 1001 | 1009.2 | 1017.9 | 1026.2
313.15 K, 5000 kPa | 1002.2 | 1010.4 | 1019.1 | 1027.3
313.15 K, 10000 kPa | 1004.3 | 1012.3 | 1020.9 | 1029.2
313.15 K, 15000 kPa | 1006.3 | 1014.2 | 1022.8 | 1031
313.15 K, 20000 kPa | 1008.2 | 1016.1 | 1024.6 | 1032.8
313.15 K, 30000 kPa | 1012.3 | 1019.9 | 1028.4 | 1036.3
313.15 K, 40000 kPa | 1016.2 | 1023.7 | 1032 | 1040
313.15 K, 50000 kPa | 1019.9 | 1027.3 | 1035.5 | 1043.2
313.15 K, 60000 kPa | 1023.8 | 1031 | 1039 | 1046.6
313.15 K, 70000 kPa | 1027.4 | 1034.4 | 1042.3 | 1050
313.15 K, 80000 kPa | 1031 | 1037.9 | 1045.5 | 1053.1
313.15 K, 90000 kPa | 1034.5 | 1041.2 | 1048.7 | 1056.2
313.15 K, 100000 kPa | 1038.2 | 1044.7 | 1052 | 1059.5
313.15 K, 110000 kPa | 1041.5 | 1047.9 | 1055.2 | 1062.5
313.15 K, 120000 kPa | 1044.9 | 1051.1 | 1058.3 | 1065.5
313.15 K, 130000 kPa | 1048.1 | 1054.3 | 1061.3 | 1068.4
313.15 K, 140000 kPa | 1051.4 | 1057.4 | 1064.5 | 1071.4
333.15 K, 100 kPa | 990.5 | 997.8 | 1005.4 | 1012.4
333.15 K, 500 kPa | 990.6 | 998 | 1005.6 | 1012.7
333.15 K, 1000 kPa | 990.8 | 998.2 | 1005.7 | 1012.8
333.15 K, 2000 kPa | 991.3 | 998.6 | 1006.2 | 1013.2
333.15 K, 5000 kPa | 992.5 | 999.8 | 1007.3 | 1014.4
333.15 K, 10000 kPa | 994.6 | 1001.8 | 1009.3 | 1016.4
333.15 K, 15000 kPa | 996.6 | 1003.8 | 1011.3 | 1018.4
333.15 K, 20000 kPa | 998.6 | 1005.7 | 1013.2 | 1020.3
333.15 K, 30000 kPa | 1002.6 | 1009.7 | 1017 | 1024.1
333.15 K, 40000 kPa | 1006.7 | 1013.6 | 1020.9 | 1027.9
333.15 K, 50000 kPa | 1010.4 | 1017.2 | 1024.3 | 1031.4
333.15 K, 60000 kPa | 1014.2 | 1020.9 | 1027.9 | –
